Data from US12624037B2, “Method of treating agitation, aggressive behavior, and impulse control disorder” (INTRA-CELLULAR THERAPIES, INC., priority 2012, dated 2026).

Columns and labels:
[1] = biological target: H1 (Homo sapiens, UniProt P35367); assay: H1 receptor affinity (off-target); format: binding
[2] = test system: veterans with non-remitting posttraumatic stress disorder; assay: Open label study of Compound A as adjunctive treatment to SSRI in non-remitting PTSD; format: in vivo, human
Procedure: The target dose is 40 mg/d, but the dose is reduced to 20 mg/d as needed due to side effects. The study medication is stored and dispensed by the TVAMC pharmacy. The baseline SSRI medication is continued throughout the 12-wks study.
Baseline Procedures and Follow-up Assessments: Subjects are assessed by the investigators or trained clinical research coordinators with telephone contacts every two weeks and the assessments (indicated in the Table below) every four weeks.
Clinician Administered PTSD Scale (CAPS; Primary Outcome): A structured clinician-administered interview is used to assess frequency and intensity of 17 symptoms of PTSD. The CAPS is further subdivided into three clusters to allow scoring for Criterion B (re-experiencing), Criterion C (avoidant behaviors) and Criterion D (hyper-arousal). […]
In addition to change scores, rates of response (≥30% decrease in CAPS) and remission ([…]) are determined Within-group effect sizes using Cohen's d for the continuous outcomes is determined. The number needed to treat (NNT) for response and remission rates is determined. […]

[3] = test system: any CYP enzyme; assay: CYP enzyme inhibition; format: in vitro ADME
[4] = test system: healthy male volunteers; assay: Randomized, double-blind, placebo-controlled single oral dose escalation study (safety, tolerability, pharmacokinetics); format: in vivo, human
Text: (§1) Pregnant or nursing women are excluded and men and women of childbearing potential use birth control.

[5] = as above; format: in vivo, human; settings: male, human, plasma; oral administration
Text: as §1

[6] = test system: Mice; assay: Social defeat/resident intruder paradigm, social isolation behavior; format: in vivo
Procedure: Mice are tested for social isolation behavior after repeated exposure (once daily for 10 days) to an aggressive resident intruder mouse in the social defeat/resident intruder paradigm as describe by Berton et al., Science (2006) 311:864-868, the contents of which are incorporated by reference. […] On the day after the last drug or vehicle treatment, the mice are placed in the open field in the presence of a resident intruder mouse and the animal's behavior recorded by videotape for 10 min. The videotapes are then scored for the total time each mouse spent during a 10 min period in specified open-field quadrants. The total time (sec) spent by mice representing each drug treatment group in the Interaction Zone in proximity to the resident intruder mouse or, in the Corner Zones, at a distance from the intruder mouse is expressed as a mean (±SEM).
In the experiment described or similarly described above, mice are subjected to exposure to an aggressive resident intruder mouse in the social defeat/resident intruder paradigm as described in Berton et al., Science (2006) 311:864-868. […] On the day after the last drug or vehicle treatment the mice are placed in the open field in the presence of a resident intruder mouse and the total time each mouse spent during a 10 min period in defined open-field quadrants in close proximity to the intruder or in isolation to the intruder is measured.

[7] = test system: healthy volunteer and clinical populations; assay: Safety and tolerability in healthy volunteer and clinical populations; format: in vivo, human
Text: Physical Risks: Side effects are listed in the informed consent and reviewed carefully with the subject.
as §1

[8] = test system: muscarinic receptors; assay: Muscarinic receptor affinity; format: binding
[9] = test system: healthy male volunteers; assay: Placebo-controlled multiple oral dose study, once daily for 5 days; format: in vivo, human
Text: as §1

[10] = biological target: cytochrome P450 3A4 (CYP3A4) (Homo sapiens, UniProt P08684); assay: Metabolism by cytochrome P450; format: in vitro ADME
Sequence of cytochrome P450 3A4 (CYP3A4) (P08684 whole entry): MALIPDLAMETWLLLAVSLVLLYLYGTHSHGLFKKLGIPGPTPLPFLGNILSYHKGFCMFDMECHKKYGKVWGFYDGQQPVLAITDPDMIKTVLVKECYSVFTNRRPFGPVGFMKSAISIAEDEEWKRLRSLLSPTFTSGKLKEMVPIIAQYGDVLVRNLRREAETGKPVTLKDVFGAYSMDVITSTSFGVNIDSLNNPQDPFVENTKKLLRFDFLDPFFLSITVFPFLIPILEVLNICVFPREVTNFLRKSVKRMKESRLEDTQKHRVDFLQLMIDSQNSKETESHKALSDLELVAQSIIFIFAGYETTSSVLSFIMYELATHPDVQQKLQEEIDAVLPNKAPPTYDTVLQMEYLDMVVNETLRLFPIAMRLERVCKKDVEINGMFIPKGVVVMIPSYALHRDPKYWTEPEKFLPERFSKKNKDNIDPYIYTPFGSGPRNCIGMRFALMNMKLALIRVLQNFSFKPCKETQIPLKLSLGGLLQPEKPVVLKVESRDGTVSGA

[11] = biological target: 5-HT2C receptor (Homo sapiens, UniProt P28335); settings: read-out: 5-HT2C Ki
Sequence of 5-HT2C receptor (P28335 33-458): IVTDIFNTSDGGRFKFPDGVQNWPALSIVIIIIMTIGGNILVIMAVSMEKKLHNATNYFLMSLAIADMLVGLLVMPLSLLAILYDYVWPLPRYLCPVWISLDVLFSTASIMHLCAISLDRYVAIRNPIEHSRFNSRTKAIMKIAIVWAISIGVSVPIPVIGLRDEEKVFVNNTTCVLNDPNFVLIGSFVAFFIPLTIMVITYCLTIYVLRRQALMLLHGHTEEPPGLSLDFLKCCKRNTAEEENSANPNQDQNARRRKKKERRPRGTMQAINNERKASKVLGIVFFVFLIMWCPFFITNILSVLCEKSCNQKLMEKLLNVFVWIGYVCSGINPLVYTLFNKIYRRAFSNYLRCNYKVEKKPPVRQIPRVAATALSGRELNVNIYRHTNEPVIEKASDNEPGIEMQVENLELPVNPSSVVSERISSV

[12] = test system: Mice; settings: chronic administration; Berton et al., Science (2006); cited from earlier work
[13] = chronic treatment 1 mg/kg IP, 30 d

Sequence of H1 (P35367 whole entry): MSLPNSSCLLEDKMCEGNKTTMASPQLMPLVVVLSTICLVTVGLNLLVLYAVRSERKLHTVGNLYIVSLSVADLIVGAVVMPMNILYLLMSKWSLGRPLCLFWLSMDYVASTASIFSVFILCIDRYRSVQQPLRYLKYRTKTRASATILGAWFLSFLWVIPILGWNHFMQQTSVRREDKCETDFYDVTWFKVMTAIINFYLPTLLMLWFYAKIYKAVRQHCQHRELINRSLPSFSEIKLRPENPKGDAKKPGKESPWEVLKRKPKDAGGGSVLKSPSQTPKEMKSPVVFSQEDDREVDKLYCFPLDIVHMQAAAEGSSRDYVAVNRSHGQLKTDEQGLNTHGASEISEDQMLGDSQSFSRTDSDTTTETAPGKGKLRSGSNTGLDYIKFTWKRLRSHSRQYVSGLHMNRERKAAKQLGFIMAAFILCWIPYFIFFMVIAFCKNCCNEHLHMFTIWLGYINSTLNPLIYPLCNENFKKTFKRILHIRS

CN1CCN2c3c(cccc31)[C@@H]1CN(CCCC(=O)c3ccc(F)cc3)CC[C@@H]12 [Compound A]
Ki [1]: > 1000 nM | efficacy for treatment of PTSD ([2]; adjunctive to SSRI, 12 weeks): effective | change in rating scale scores (CAPS, QIDS-SR, CGI-I, PANSS, SDS) ([2]; baseline to end of 12-week treatment, 20-40 mg/d adjunctive to SSRI): significant decline | CYP inhibition [3]: not a potent inhibitor | dose dependence of pharmacokinetics ([4]; oral administration of increasing doses): dose-proportional linear pharmacokentics | QTc ([4]; single oral doses 2.5-30.0 mg): no significant increase | changes in 12-lead ECG or 24-hour Holter-ECG ([4]; single oral doses 2.5-30.0 mg): no clinically significant changes | changes in vital signs or clinical laboratory ([4]; single oral doses 2.5-30.0 mg): no dose-related clinically relevant changes | serious adverse events ([4]; single oral doses 2.5-30.0 mg): no serious adverse events | severity of adverse events ([4]; single oral doses 2.5-30.0 mg): mild to moderate | safety and tolerability ([4]; single oral doses of 2.5, 5.0, 10.0, 20.0 and 30.0 mg): safe and tolerated | Tmax [5]: ~1 h | time spent in the Interaction Zone, treatment alone ([6]; 1 mg/kg IP once daily for 30 d, no defeat, compared with untreated control mice): did not result in differences | time spent in proximity to the intruder after exposure to the intruder paradigm ([6]; 1 mg/kg IP once daily for 30 d, compared with Compound A alone): no significant reduction | effect on social defeat behavior [6, 13]: reversal of social defeat behavior | functional anti-depressant activity [6, 13]: has functional anti-depressant activity | severity of adverse events ([7]; headache, dizziness, postural tachycardia, dry mouth, gastrointestinal complaints, somnolence): mild to moderate | hyper-prolactinemia ([7]; human, in vivo): does not produce hyper-prolactinemia | sexual dysfunction ([7]; human, in vivo): no reports of sexual dysfunction | safety and tolerability ([7]; range of doses 1-140 mg): safe and well-tolerated | cardiovascular side effects such as postural hypotension ([7]; related to alpha 1A activity, to date): not been associated with any cardiovascular side effects | affinity for muscarinic receptors [8]: no affinity | accumulation in plasma with repeated administration ([9]; Day 5 vs Day 1 pharmacokinetics): no accumulation | safety and tolerability ([9]; multiple oral doses of 5, 10 and 20 mg once daily for 5 days): safe and well tolerated | metabolizing enzyme [10]: metabolized predominantly by cytochrome P450 3A4 (CYP3A4) | Ki [11]: 173 nM

CNCCC(Oc1ccc(C(F)(F)F)cc1)c1ccccc1 (stereo not drawn) [fluoxetine]
isolation behavior in social defeat/resident intruder model [12]: reversed
